Assays:
Aβ42 = target: T1, Aβ42 (Homo sapiens, UniProt P05067); assay: ThT binding assay, inhibition of Aβ42 fibrillar assembly; type: biochemical
T1 construct: commercially available β-amyloid peptide (1-42), human; purchased marck (so in the source) PP69-.025 mg
Procedure: Monomeric form of Aβ42 peptide was prepared by dissolving 0.25 mg of commercially available β-amyloid peptide (1-42), human (cat: PP69-.025 mg), marck peptide in 250 µL of hexafluoro-2-propanol (HFIP) solvent to obtain a Aβ42 solution. This solution was incubated at room temperature for 1 hour, further to which the HFIP solvent was removed by nitrogen gas flow to obtain the monomeric Aβ42 peptide. To prepare a fibrillar sample of Aβ42 peptide, 0.025 mg of Aβ42 peptide was dissolved in […] of PBS buffer (pH = 7.4; contains 2% of DMSO or 100 mM NaOH) to obtain a monomeric Aβ42 solution and the peptide concentration in this solution was calculated through UV-Visible absorbance studies (ε = 1450 cm^-1 M^-1). The Aβ42 monomeric solution was incubated for 5 days in PBS buffer (pH = 7.4) to allow for the full phase formation of Aβ42 fibrils. The presence of Aβ42 fibrils was further confirmed by ThT assay.
Initially, the ability of the prepared NMI compounds, TGR63-68 to inhibit Aβ42 fibrillar assembly at 1:1 molar ratio with Aβ42 fibrils was evaluated using thioflavin (ThT) binding assay. 10 µM of Aβ42 fibrils in the absence (Ctrl) and the presence of 10 µM of inhibitors individually were incubated for 72 h. A normalized data for fluorescence intensity (NFI) of ThT at 482 nm (λex = 442 nm) was measured as represented in FIG. 1(a).
The ability of NMI compounds (TGR63, TGR64 and TGR65) to prevent Aβ42 fibrillar assembly (inhibition) and to break down the preformed fibrils (dissolution) was evaluated using thioflavin (ThT) binding assay. Aβ42 fibrils at a concentration of 10 µM and its aggregates, were used to study the effect of NMI compounds (TGR63, TGR64 and TGR65) at varying concentrations on both inhibition and dissolution assays. For the inhibition assay, all the NMI compounds (TGR63, TGR64 and TGR65) were added independently to Aβ peptide (10 µM) at 0 h of the experiment, whereas for the aggregates dissolution assay they were added to Aβ42 fibrillar aggregates grown for 2 days. Upon incubating for a predetermined period, Aβ42 inhibitor samples were analyzed using ThT by measuring the fluorescence change at 485 nm as presented in FIG. 1(b) and FIG. 1(c), wherein the error bars represent the standard deviation (SD) of the fluorescence measurement. Fluorescence values were normalized to maximal fluorescence intensity at 485 nm compared to that of the control (Aβ42 with no inhibitor). Experiments were performed at various stoichiometric ratios (Aβ42/inhibitor) of 1:1, 1:2, and 1:5 with a fixed concentration of Aβ42 at 10 µM. Each experiment was repeated three times (n = 3). […] TGR 63 recorded 80% dissolution efficiency while TGR 64 and TGR 65 recorded 75% and 78% dissolution efficiency respectively, for the stoichiometric ratio of 1:5.

Aβ42 peptide = target: T2, Aβ42 peptide (Homo sapiens, UniProt P05067); assay: 1H NMR study of molecular interactions between TGR63 and Aβ42; type: binding; conditions: Aβ42 10 µM, D2O (12%) containing PBS, 24, 48 and 72 h
T2 construct: commercially available β-amyloid peptide (1-42), human; purchased marck (so in the source) PP69-.025 mg
Procedure: Nuclear magnetic resonance (NMR) spectroscopy was performed to ascertain the molecular level interactions between TGR63 and Aβ42 peptide. ^1H NMR spectra of TGR63 were acquired in absence and presence of Aβ42 (10 µM) peptides using the WATERGATE sequence for solvent suppression in deuterium oxide (D2O, 12%) containing PBS at different incubation time points (24, 48 and 72 h). […] The aromatic protons of NMI and aniline moieties (a-f) appeared at 6.5-8.8 ppm, respectively. However, the splitting patterns of all the aromatic peaks were completely readjusted undergoing a significant downfield shift over a period of time in the presence of Aβ42 peptide. This observation confirmed the interaction of aromatic moieties (π-electron rich) of TGR63 with native and misfolded Aβ42 peptides, which leads to alteration in the extent of nuclei and proximal electron coupling (J-couplings).

Aβ42 fibrils = target: T3, Aβ42 fibrils (Homo sapiens, UniProt P05067); assay: TEM visualization of Aβ42 aggregation species; type: biochemical; conditions: 10 µM Aβ42, 50 µM TGR63, 48 h
T3 construct: commercially available β-amyloid peptide (1-42), human; purchased marck (so in the source) PP69-.025 mg
Procedure: To visualize the amyloid fibrils, the 10 µM of Aβ42 peptides were incubated alone, and in combination with 50 µM TGR63 for 48 h and spotted on mica surface and TEM grid to acquire the TEM images. FIG. 4(a) and FIG. 4(b) show the TEM images of Aβ42 aggregation species in the absence and presence of TGR63 respectively.

T1 sequence (P05067 672-713 limits assumed): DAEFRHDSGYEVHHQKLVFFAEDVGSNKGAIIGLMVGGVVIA
T3 sequence (P05067 672-713 limits assumed): as above
T2 sequence (P05067 672-713 limits assumed): as above

## CN(C)c1ccc(C#Cc2ccc3c4c(cccc24)C(=O)N(CC[N+](C)(C)C)C3=O)cc1 [TGR63, 2-(6-((4-(dimethylamino)phenyl)ethynyl)-1,3-dioxo-1H-benzo[de]isoquinolin-2(3H)-yl)-N,N,N-trimethylethan-1-aminium]
Aβ42; 1:1 molar ratio, 10 µM Aβ42, 10 µM inhibitor, 72 h
  inhibitory effect on Aβ42 aggregation (ThT NFI at 482 nm): ~ 45%
Aβ42; Aβ42/inhibitor 1:1, Aβ42 10 µM, third day of incubation
  decrease in the formation of Aβ aggregates: ~ 50%
Aβ42; Aβ42/inhibitor 1:2, Aβ42 10 µM, third day of incubation
  Aβ aggregation decreased to: 75%
Aβ42; Aβ42/inhibitor 1:5, Aβ42 10 µM, third day of incubation
  Aβ aggregation decreased to: 90%
Aβ42 peptide
  interaction with Aβ42 peptides (1H NMR): interacts with native and misfolded Aβ42 peptides
Aβ42 fibrils
  intertwined structure of Aβ42 fibrils (TEM): disrupted

Source: patent US20230331679A1, “NAPHTHALENE MONOIMIDE COMPOUNDS AND METHODS THEREOF” (JAWAHARLAL NEHRU CENTRE FOR ADVANCED SCIENTIFIC RESEARCH, priority 2020, published 2023)
